{
  "source": "patent US8329681B2",
  "about": "“Methods and compositions for the efficient delivery of therapeutic agents to cells and animals” (University of Massachusetts, priority 2005, dated 2012)",
  "key": {"HeLa cells [1]": {"test_system": "HeLa cells", "test": "Cell Titer 96 AQueous One Solution (MTS) cytotoxicity assay", "format": "cell-based, human", "conditions": "liposomal formulation alone or in combination with DOPE and DOPC as co-lipid", "method": "Alternatively, the cytotoxicity of the lipids was measured using the Cell Titer 96® AQueous One Solution Cell Proliferation Assay. The Cell Titer 96® AQueous One Solution Reagent contains a tetrazolium compound [3-(4,5-dimethylthiazol-2-yl)-5-(3-carboxymethoxyphenyl)-2(4-sulfophenyl)-2H-tetrazolium, inner salt; MTS^17] and an electron coupling reagent (phenazine ethosulfate; PES). The cytotoxicity assay was performed in 96 well plates by maintaining the ratio of number of cells to amount of cationic lipid constant as in transfection experiments. MTS was added 24 hours after transfection. Cell Titer 96® AQueous One Solution Reagent (20 ul) was pipetted into each well of the 96-well assay plate containing the samples in 100 μl of culture medium. In case of HeLa cells the plates were incubated for 2 hours, whereas for FL83B cells, plates were incubated for 4 hours at 37° C. in a humidified, 5% CO2 atmosphere. Absorbance was then recorded at 490 nm.\nIn a second experiment, FL83B and HeLa cells were plated on 96 well plate 18 hours prior to transfection. Then, liposome was added to each well and incubated for 24 hours. Thereafter, Cell Titer 96® AQueous One Solution Reagent was added and incubated for 4 hours. The MTS tetrazolium compound (Owen's reagent) is bioreduced by viable cells into a colored formazan product that is soluble in tissue culture […]. The absorbance of the formazan was measured at 490 nm with a 96 well plate reader."}, "A549 cells": {"test_system": "A549 cells", "test": "Transfection of pSV-β-gal plasmid, β-galactosidase reporter activity", "format": "cell-based, human", "method": "(§1) Cationic lipids and the co-lipids in chloroform were dried under a stream of N2 gas and vacuum-desiccated for a minimum of 6 h to remove residual organic solvent. The dried lipid film was hydrated in sterile deionized water at cationic lipid concentration of 1 mM for a minimum of 12 h. Liposomes were vortexed to remove any adhering lipid film and probe sonicated until a clear translucent solution is formed. The pDNA solution was added to the liposomes, mixed properly by pipeting and shaken on a rotary shaker (15-30 mins.) before use.\n(§2) Cells were seeded at a density of 20,000 (for HeLa cells), 16,000 (for A-549 cells), 8,000 (for FL83B cells) per well in a 96-well plate 18-24 h before transfection. An amount of 0.30 μg of pDNA was complexed with varying amounts of lipids (to give +/− ratios of 0.3:1, 1:1, 3:1 and 9:1) in plain OPTIMEM (total volume made up to 100 μl) and then shaken on a rotary shaker at room temperature for 20-30 minutes. The complexes were then added to the cells. After 5 h of incubation, 200 μl of complete medium containing 10% FBS in DMEM for HeLa and 10% FBS in F-12K for FL83B and A549 was added to the cells. The medium was changed after 24 h and the reporter gene activity was estimated 48 h after transfection. Cells were washed with PBS (100 μl) and lysed in […] lysis buffer (5× reporter lysis buffer diluted to 1×, working concentration). The β-galactosidase activity per well was estimated by adding 50 μl of 2× substrate solution (1.33 mg/ml of ONPG, 0.2 M sodium phosphate, pH 7.15 and 2 mM magnesium chloride) to the lysate in a 96-well plate. Absorbance of the product ortho-nitrophenol was measured at 420 nm. The absorbance values reported are the average values from two replicate experiments performed in the same plate on the same day. Each transfection experiment was performed three times on three different days to control for variations in transfection efficiency.\n(§3) Briefly, the efficacy of various lipid formulations were tested in three cell lines A-549, FL83B and HeLa cells and the transfection efficiencies of the cationic liposomal formulations were compared with a commercially available transfection reagent (e.g., Lipofectamine 2000)."}, "HeLa cells [2]": {"test_system": "HeLa cells", "test": "Transfection of pSV-β-gal plasmid, β-galactosidase reporter activity", "format": "cell-based, human", "method": "as §1, §2, §3"}, "FL83B cells": {"test_system": "FL83B cells", "test": "Transfection of pSV-β-gal plasmid, β-galactosidase reporter activity", "format": "cell-based, rat", "method": "as §1, §2, §3"}, "CDK9 expression": {"test_system": "CDK9 expression", "test": "In vivo delivery of CDK9 siRNA with liposome by tail vein injection, CDK9 expression in spleen", "design": "species or system BALB/c mice", "conditions": "Cy3-labeled CDk9 siRNA (25 μg) and liposome (125 μg), repeated 4 and 8 h later, within the initial 24 h after treatment", "method": "Total RNA was extracted from tissues or cultured cells using Trizol (Invitrogen, Carlsbad, Calif.), and real-time RT-PCR for CDK9 and GAPDH mRNA quantification was carried out using 200 ng of total RNA and the QuantiTect SYBR Green RT-PCR Kit (Qiagen, Valencia, Calif.) according to the manufacturer's instructions. The ratio of CDK9 and GAPDH mRNA was calculated and expressed as a group average relative to the control group. The specific probe for detection of CDK9 mRNA levels was designed to the following regions of the CDK9 mRNA ORF, the forward primer 5′ TCGGACCAA AGCCTCACCGTATAA 3′, the reverse primer 5′ […] TTG 3′\nMale BALB/c mice, 6-8 weeks of age and weighting 20-22 g, were purchased form the Jackson Laboratory (Bar Harbor, Me.). Synthetic siRNA were delivered in vivo using following method. For each mice 25 μg of siRNA in 100 μl of HEPES Buffered Saline (20 mM HEPES, 150 mM NaCl, pH 7.4) was transferred into a sterile tube. In a separate sterile tube 125 μg of liposome was mixed with 200 μl HEPES Buffered Saline. The siRNA solution was transferred to the tube containing liposome solution and then incubated at room temperature for 20 minutes. 200 μl of the complexes was injected via the tail vein, using a 1-ml syringe and 27-gauge needle. The injection was repeated 4 and 8 h later. Control mice were injected with an equal volume of liposome. At 24 h after the last injection, the mice were sacrificed and tissues were harvested for further analysis. CDK9 expression level was normalized with GAPDH and then compared to those obtained from control animals and shown as percent expression. The data represent the mean value +/− SD of three to five mice in each group.\nBriefly, the ability of the new synthesized liposome to deliver siRNA in mice was investigated. BALB/c mice were administrated with complexes of Cy3-labeled CDk9 siRNA (25 μg) and liposome (125 μg) via normal pressure tail vein injection. The injection was repeated 4 and 8 h later. Control mice were administrated with an equal amount of liposome. […]"}, "[3]": {"test_system": "A-549, FL83B and HeLa cells", "test": "Transfection of pSV-β-gal plasmid, overall statement without cell line", "format": "cell-based", "conditions": "alone without any co-lipids", "method": "as §2, with “efficiency. […]” for “efficiency.”"}, "[4]": {"conditions": "alone, lipid:DNA charge ratios 1:1 and 0.3:1"}, "[5]": {"conditions": "in combination with DOPE, charge ratio 3:1"}},
  "data": [
    {"compound": "CCCCCCCCC=CCCCCCCCC(=O)OC(COC(=O)CCC(=O)OC1CCC2(C)C(=CCC3C2CCC2(C)C(C(C)CCCC(C)C)CCC32)C1)C[N+](C)(C)C.[I-]", "note": "(stereo not drawn) [Lipid 8, N,N,N-Trimethyl-N-[2-(9(Z)-octadecanoyloxy),3-succinyloxy(4-cholesteryloxy)-propyl]ammonium iodide]", "values": [
      {"measurement": "cytotoxicity as compared to a control", "setting": "HeLa cells [1]", "result": "non-toxic"},
      {"measurement": "transfection efficiency compared with Lipofectamine 2000", "setting": "A549 cells; [4]", "result": "one fold less"},
      {"measurement": "transfection efficiency, fold less than Lipofectamine 2000", "setting": "A549 cells; in combination with DOPC", "result": "about 1 fold"},
      {"measurement": "transfection efficiency compared with Lipofectamine 2000", "setting": "A549 cells; [5]", "result": "comparable"},
      {"measurement": "transfection efficiency, fold less than Lipofectamine 2000", "setting": "HeLa cells [2]; [4]", "result": "~1.5", "unit": "fold"},
      {"measurement": "transfection efficiency compared with Lipofectamine 2000", "setting": "HeLa cells [2]; in combination with DOPC, charge ratio of 1.1", "result": "comparable"},
      {"measurement": "transfection efficiency, fold less than Lipofectamine 2000", "setting": "HeLa cells [2]; [5]", "result": "more than 1.5 fold"},
      {"measurement": "transfection efficiency compared with Lipofectamine 2000", "setting": "FL83B cells; [4]", "result": "one fold less"},
      {"measurement": "transfection efficiency compared with Lipofectamine 2000", "setting": "FL83B cells; in combination with DOPC, charge ratio 9.0:1.0 to 0.3:1.0", "result": "about two fold less"},
      {"measurement": "transfection efficiency, fold less than Lipofectamine 2000", "setting": "FL83B cells; [5]", "result": "more than 1.5 fold"},
      {"measurement": "CDK9 expression level in the spleen decreased by", "setting": "CDK9 expression", "result": 28, "unit": "%"},
      {"measurement": "transfection efficiency of lipid alone compared with lipid in combination with DOPE and DOPC", "setting": "[3]", "result": "about as efficient"}
    ]}
  ]
}
